Consider four molecules from patent US11117915B2, “Antibacterial aminoglycoside analogs” (Cipla USA, Inc., priority 2007, dated 2021).

The subject of experiment [1] is P. aeruginosa ATCC 27853. In words: MIC assay, CLSI broth microdilution, P. aeruginosa ATCC 27853 (APAE001). The experiment is classed as cell-based. The following applies: Pseudomonas aeruginosa. The method in brief: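 MICs were read after 20 hours at 35° C in ambient air, with a final inoculum of 5×10^5 CFU/mL from saline-suspended overnight colonies. Serial two-fold dilutions in Mueller Hinton Broth followed the CLSI reference method (M7-A7), with QC strains E. coli ATCC 25922, P. aeruginosa ATCC 27853 and S. aureus ATCC 29213.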

Experiment [2] relates to P. aeruginosa ATCC 27853. In words: murine septicemia model of infection, P. aeruginosa. It counts as in vivo. The following applies: mice inoculated IP, single SC or IV dose 1 hour after challenge, mortality 7 days; ED50 values are mg/kg. On the procedure: (§1) Two models were run on each compound, using E. coli and P. aeruginosa QC bacterial strains. Both studies employed the same design. […] At 1 hour after bacterial challenge, the mice received a single SC or IV […] dose of vehicle or test substance to assess in vivo anti-infective activity. Mortality was recorded once daily for 7 days after bacterial inoculation.

Experiment [3] concerns E. coli ATCC 25922. In words: MIC assay, CLSI broth microdilution, E. coli ATCC 25922 (AECO001). The experiment is classed as cell-based. The settings on record: Escherichia coli; AECO001 is ATCC25922; 35° C., 20 hours; read-out: MIC AECO001. Put shortly:
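Bacteria from overnight agar colonies, suspended in saline, added to serial two-fold dilutions in Mueller Hinton Broth at 5×10^5 CFU/mL final. Incubation 35° C., 20 hours, ambient air, per CLSI M7-A7 reference method.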

Experiment [4] has as its system E. coli ATCC 25922. In words: murine septicemia model of infection, E. coli. The experiment is classed as in vivo. The following applies: mice inoculated IP, single SC or IV dose 1 hour after challenge, mortality 7 days; ED50 values are mg/kg. On the procedure: as §1
Setting [5] is: ATCC27853, Table 2, read-out: MIC P. aeruginosa.
Setting [6] is: APAE001 is ATCC27853, 35° C., 20 hours, read-out: MIC APAE001.

Converted amounts (≈) assume the structure as drawn. Like-named read-outs stand apart in the source and are kept apart here. Bounds are passed on as bounds.

For orientation: MIC means the smallest concentration in the dilution series that meets the test's criterion for growth inhibition.

In the case of `CN[C@@H]1[C@@H](O)[C@@H](O[C@@H]2[C@@H](O)[C@H](O[C@H]3OC(CNCCO)=CC[C@H]3N)[C@@H](N)C[C@H]2NC(=O)[C@@H](O)CCN)OC[C@]1(C)O` [Example 1, 6′-(2-Hydroxy-ethyl)-1-(4-amino-2(S)-hydroxy-butyryl)-sisomicin], the MIC was 1 to 16 µg/mL (≈ 1.69 to 27 µM) in the experiment on P. aeruginosa ATCC 27853 [1] (setting [5]), 1 to 16 µg/mL (≈ 1.69 to 27 µM) with P. aeruginosa ATCC 27853 [1] (setting [6]) and less than 1 µg/mL with E. coli ATCC 25922 [3]. Moreover, the “ED50/MIC P. aeruginosa” value in the experiment with P. aeruginosa ATCC 27853 [2] was 4. For the same molecule, the “ED50/MIC E. Coli” value in the experiment with E. coli ATCC 25922 [4] is less than 2.

As for `CN[C@@H]1[C@@H](O)[C@@H](O[C@@H]2[C@@H](O)[C@H](O[C@H]3OC(CNCCO)=CC[C@H]3N)[C@@H](N)C[C@H]2NC(=O)[C@@H](O)CN)OC[C@]1(C)O` [Example 16, 6′-(2-Hydroxy-ethyl)-1-(3-amino-2(S)-hydroxy-propionyl)-sisomicin], the minimum inhibitory concentration (MIC) with P. aeruginosa ATCC 27853 [1] (setting [5]) was 1 to 16 µg/mL (≈ 1.73 to 27.6 µM); in the experiment on P. aeruginosa ATCC 27853 [1] (setting [6]), 1 to 16 µg/mL (≈ 1.73 to 27.6 µM); in the experiment with E. coli ATCC 25922 [3], less than 1 µg/mL. In addition, the “ED50/MIC P. aeruginosa” value in the experiment with P. aeruginosa ATCC 27853 [2] was 3. Moreover, the “ED50/MIC E. Coli” value in the experiment with E. coli ATCC 25922 [4] was 1.

Turning to `CN[C@@H]1[C@@H](O)[C@@H](O[C@@H]2[C@@H](O)[C@H](O[C@H]3OC(CNCC(O)CN)=CC[C@H]3N)[C@@H](N)C[C@H]2NC(=O)[C@@H](O)CN)OC[C@]1(C)O` (stereo partly drawn) [Example 22, 6′-(3-Amino-2-hydroxy-propyl)-1-(3-amino-2(S)-hydroxy-propionyl)-sisomicin], the MIC in the experiment with P. aeruginosa ATCC 27853 [1] (setting [5]), in the experiment on P. aeruginosa ATCC 27853 [1] (setting [6]) and in the experiment with E. coli ATCC 25922 [3] was 1 to 16 µg/mL (≈ 1.65 to 26.3 µM) throughout. Besides, the “ED50/MIC P. aeruginosa” value in the experiment with P. aeruginosa ATCC 27853 [2] is reported as 8. Moreover, in the experiment with E. coli ATCC 25922 [4], the “ED50/MIC E. Coli” value is 1.

`CN[C@@H]1[C@@H](O)[C@@H](O[C@@H]2[C@@H](O)[C@H](O[C@H]3OC(CNCCCN)=CC[C@H]3N)[C@@H](N)C[C@H]2NC(=O)[C@@H](O)CN)OC[C@]1(C)O` [Example 17, 6′-(3-Amino-propyl)-1-(3-amino-2(S)-hydroxy-propionyl)-sisomicin]: the minimal inhibitory concentration (MIC) was 1 to 16 µg/mL (≈ 1.69 to 27 µM) in the experiment with P. aeruginosa ATCC 27853 [1] (setting [5]), 1 to 16 µg/mL (≈ 1.69 to 27 µM) with P. aeruginosa ATCC 27853 [1] (setting [6]) and less than 1 µg/mL in the experiment on E. coli ATCC 25922 [3]. For the same molecule, the “ED50/MIC P. aeruginosa” value in the experiment with P. aeruginosa ATCC 27853 [2] was 5. The “ED50/MIC E. Coli” value in the experiment with E. coli ATCC 25922 [4] was 1.
